Data on 3 compounds can be found in patent US20180311268A1, “RESPONSE-GUIDED HCV THERAPY” (EMORY UNIVERSITY, priority 2015, published 2018).

The test system of series [1] is HCV genotype 1. The settings on record: added to sofosbuvir and ledipasvir, 6 week triple-drug regimens; cited from earlier work.
The nature of series [2]: Plasma concentrations of anti-HCV drugs by LC-MS/MS. It is filed as in vivo, human. How it is done: Plasma samples from patients infected with HCV were stored in aliquots at −80° C. until further processing. Viral RNA was extracted and the genome sequenced using an Applied Biosystems 3730×1 DNA analyser as previously described.^21 Data were analysed with the ABL-DeepChek-HCV 1.4 software (ABL SA, Luxembourg, Luxembourg). To confirm compliance, a liquid chromatography-tandem mass spectrometry (LC-MS/MS) method was developed to detect and quantify the anti-HCV drug concentrations in plasma collected from each patient. Briefly, blood samples were collected from 25 patients at 8 h, 24 h, and 48 h after initiating treatment. 50 μL of plasma was extracted with 3 mL of ethyl acetate containing abacavir (as an internal standard). The supernatant was collected, air dried, then reconstituted in 2 mmol/L ammonium acetate solution with 75% methanol. Five target compounds were simultaneously monitored and quantified by LC-MS/MS in the multiple reaction monitoring mode, including sofosbuvir (m/z 530.2/243.2), daclatasvir (m/z 739.5/339.3), ledipasvir (m/z 889.4/637.3), asunaprevir (m/z 748.4/648.4), and simeprevir (m/z 750.4/315.2). A Dionex Ultimate 3000 HPLC system (Thermo Scientific, Waltham, Mass., USA) coupled with an AB SCIEX API5000 triple quadrupole mass spectrometer (AB SCIEX, Framingham, Mass., USA) was used for analysis.
Fifty μL plasma was extracted with 3 mL of ethyl acetate containing abacavir (as internal standard). The supernatant was collected, air-dried then reconstituted in 2 mM ammonium acetate solution with 75% methanol. Five target compounds were simultaneously monitored and quantified by LC-MS/MS in the multiple reaction monitoring (MRM) mode, including sofosbuvir (m/z 530.2à243.2), daclatasvir (m/z 739.5à339.3), ledipasvir (m/z 889.4à637.3), asunaprevir (m/z 748.4à648.4) and simeprevir (m/z 750.4à315.2). SOF concentrations were measured with a wide range from BLOQ to 3,174 ng/mL; LDV and DCV were in the range of BLOQ to 469 ng/mL and 101 to 3045 ng/mL; ASV and SMV were in the range of BLOQ to 626 ng/mL and 30.6 to 693 ng/mL, respectively.

Molecules are shown by their SMILES. Values joined by “and” are separate entries in the source; they are usually repeats but may differ in a detail not shown here. Identical values can stand only once.

`CC1=CC[C@H](C(=O)N(c2cc(C#CC(C)(C)C)sc2C(=O)O)[C@H]2CC[C@](O)(CO[C@H]3CCOC3)CC2)CC1` [GS-9669]: the “Patients with SVR12” value in series [1] was 95%.

Consider `CC[C@@H]1C[C@]1(NC(=O)[C@@H]1C[C@@H](Oc2cc(-c3csc(NC(C)C)n3)nc3c(Cl)c(OCCN4CCOCC4)ccc23)CN1C(=O)[C@@H](NC(=O)O[C@@H]1C[C@@H]2C[C@@H]2C1)C(C)(C)C)C(=O)O` [GS-9451], for which the “Patients with SVR12” value in series [1] is listed as 95%.

For the compound `CC(C)OC(=O)[C@H](C)N[P@](=O)(OC[C@H]1O[C@@H](n2ccc(=O)[nH]c2=O)[C@](C)(F)[C@@H]1O)Oc1ccccc1` [SOF, Sofosbuvir], in series [2] (all subjects, 8, 24 and 48 hr after first treatment, BLOQ = below LOQ), the “Range of measured plasma concentrations” value is given as ≤ 3,174 ng/mL. In addition, the concentration at 8 h is 9.99 ng/mL in series [2] (human, in vivo, individual subjects on SOF + DCV + ASV Then SOF + LDV, >3 weeks treatment, 8 h) and 0.67 ng/mL in series [2] (human, in vivo, individual subjects on SOF + LDV + ASV Then SOF + LDV, >3 weeks treatment, 8 h). Further, the concentration at 24 h stood at 11.2 ng/mL in series [2] (human, in vivo, individual subjects on SOF + DCV + ASV Then SOF + LDV, >3 weeks treatment, 24 h) and 2410 ng/mL in series [2] (human, in vivo, individual subjects on SOF + DCV + SMV, 3 weeks treatment, 24 h). Further, the concentration at 48 h in series [2] (human, in vivo, individual subjects on SOF + DCV + ASV Then SOF + LDV, >3 weeks treatment, 48 h) was found to be 631 ng/mL. In addition, the Plasma concentration is 0.55 ng/mL and 0.28 ng/mL and 2.03 ng/mL and 13.5 ng/mL and 0.47 ng/mL in series [2] (individual subjects on SOF + DCV + ASV, 3 weeks treatment, 8 h); 1.09 ng/mL and 0.28 ng/mL and 0.27 ng/mL and 192 ng/mL and 256 ng/mL in series [2] (individual subjects on SOF + DCV + ASV, 3 weeks treatment, 24 h); 1.41 ng/mL and 0.80 ng/mL and 7.55 ng/mL and 292 ng/mL and 12.7 ng/mL and 1807 ng/mL in series [2] (individual subjects on SOF + DCV + ASV, 3 weeks treatment, 48 h); 2.35 ng/mL and 0.26 ng/mL and 14.7 ng/mL and 0.42 ng/mL and 1.45 ng/mL in series [2] (individual subjects on SOF + DCV + SMV, 3 weeks treatment, 8 h); 2114 ng/mL and 1923 ng/mL in series [2] (individual subjects on SOF + DCV + SMV, 3 weeks treatment, 24 h); 3174 ng/mL and 1796 ng/mL and 1549 ng/mL and 1227 ng/mL in series [2] (individual subjects on SOF + DCV + SMV, 3 weeks treatment, 48 h). Moreover, the Plasma concentration is 0.58 ng/mL in series [2] (individual subjects on SOF + LDV + ASV Then SOF + LDV, >3 weeks treatment, 8 h); 202 ng/mL and 1591 ng/mL and 0.61 ng/mL in series [2] (individual subjects on SOF + LDV + ASV Then SOF + LDV, >3 weeks treatment, 24 h); 7.17 ng/mL and 5.52 ng/mL and 4.22 ng/mL and 18.2 ng/mL and 4.54 ng/mL and 10.4 ng/mL in series [2] (individual subjects on SOF + LDV + ASV, 3 weeks treatment, 8 h after initiating treatment); 0.94 ng/mL and 8.92 ng/mL and 1.23 ng/mL and 2.13 ng/mL and 1.17 ng/mL and 0.99 ng/mL in series [2] (individual subjects on SOF + LDV + ASV, 3 weeks treatment, 24 h); 4.76 ng/mL and 6.35 ng/mL and 0.64 ng/mL and 1.59 ng/mL and 0.92 ng/mL and 0.81 ng/mL in series [2] (individual subjects on SOF + LDV + ASV, 3 weeks treatment, 48 h).
